Measured values: PMC9270327 (Communications Biology, 2022)
“And” between values parts separate entries of the source, which are not always exact repeats. Identical values can stand only once. Like-named read-outs stand apart in the source and are kept apart here.

Legend:
[1] = tested on: lentiviral pseudoparticles carrying SARS-CoV-2 Omicron BA.1 (B.1.1.529) spike, Caco-2 cells; assay type: cell-based
[2] = tested on: SARS-CoV-2 Wuhan-Hu-1, Caco-2 cells; assay type: cell-based; conditions: for SARS-CoV-2 infection, Mean (0 nM = 100): Fig. 6a, Wuhan-Hu-1
[3] = tested on: lentiviral pseudoparticles carrying SARS-CoV-2 Alpha (B.1.1.7) spike, Caco-2 cells; assay type: cell-based; conditions: for SARS-CoV-2 spike driven entry, Mean (0 nM = 100): Fig. 5b
[4] = target: TMPRSS2 (Homo sapiens, UniProt O15393); assay: Plasma stability: residual TMPRSS2 inhibition after incubation in human plasma
TMPRSS2, sequence (O15393 whole entry): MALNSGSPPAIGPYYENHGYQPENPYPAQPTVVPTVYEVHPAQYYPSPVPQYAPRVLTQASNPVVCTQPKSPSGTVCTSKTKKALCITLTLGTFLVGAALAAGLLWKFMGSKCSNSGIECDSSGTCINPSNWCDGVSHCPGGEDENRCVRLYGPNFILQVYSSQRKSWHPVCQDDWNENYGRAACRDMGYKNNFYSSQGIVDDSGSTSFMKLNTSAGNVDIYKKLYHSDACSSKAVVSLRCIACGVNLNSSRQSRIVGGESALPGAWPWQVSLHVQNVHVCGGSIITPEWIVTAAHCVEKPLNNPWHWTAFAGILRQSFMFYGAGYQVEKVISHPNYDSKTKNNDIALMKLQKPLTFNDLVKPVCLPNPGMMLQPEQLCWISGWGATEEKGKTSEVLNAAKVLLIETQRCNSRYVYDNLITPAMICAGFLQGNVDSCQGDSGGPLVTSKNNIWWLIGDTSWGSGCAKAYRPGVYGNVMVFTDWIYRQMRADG
Description: The activity of the compounds against the recombinant human enzymes was determined in enzyme inhibition assays. […] The measurements were performed on a Tecan infinite® M1000 and the fluorescence intensity was measured by exciting the AMC fluorophore at 380 nm wavelength and recording emission at 460 nm wavelength. […] Fluorescence intensities and absorption were measured every 2 min for 2 h or as endpoint after 2 h. […] To determine the IC50 values, the concentration-response data were plotted with the program GraphPad prism version 8.4.2 (San Diego, California) and a nonlinear regression fit with the equation [Inhibitor] vs. normalized response was applied. The inhibitory constant Ki was calculated from the IC50 values using the Cheng–Prusoff equation (Ki = IC50/[S]/KM) for competitive reversible inhibitors[66].
The stability of the inhibitors was measured according to a modified procedure from ref. [67]. […] At indicated timepoints, 100 µL samples were taken and mixed with 200 µL of ethanol to precipitate proteins. […] The supernatant was aspirated and analyzed using analytical HPLC. The residual inhibitory constants Ki after incubation was assessed by mixing serial dilutions of the inhibitor with recombinant TMPRSS2 as described above.
Shown are the means ± SD of n=1 experiment performed in triplicates.

For ace-Arg-Pro-Arg-kbt [Compound 2], the “SARS-CoV-2 spike driven entry, Mean (0 nM = 100)” value (from here on “SARS-CoV-2 spike driven entry”) [1] was 80.0549 and 94.4227 and 98.8201, the IC50 ([1]; Caco-2 cells, luciferase 2 days post transduction, read-out: IC50 pseudotyped lentivirus Omicron BA.1) was 431 nM and the “SARS-CoV-2 spike driven entry” value ([1]; Fig. 5e, compound 400 nM, […]) was 52.4269. The “SARS-CoV-2 spike driven entry” value ([1]; Fig. 5e, compound 2000 nM, […]) was 20.742, the “SARS-CoV-2 spike driven entry” value ([1]; Fig. 5e, compound 10000 nM, […]) was 5.628 and the “SARS-CoV-2 spike driven entry” value ([1]; Fig. 5e, compound 50000 nM, […]) was 3.26. For the same substance, the “SARS-CoV-2 infection, Mean (0 nM = 100)” value ([2]; compound 32 nM) was 97.173, the “SARS-CoV-2 infection, Mean (0 nM = 100)” value ([2]; compound 160 nM) was 99.3408 and the “SARS-CoV-2 infection, Mean (0 nM = 100)” value ([2]; compound 800 nM) was 95.9056. The “SARS-CoV-2 infection, Mean (0 nM = 100)” value ([2]; compound 4000 nM) was 58.4381, the “SARS-CoV-2 infection, Mean (0 nM = 100)” value ([2]; compound 20000 nM) was 1.12 and the “SARS-CoV-2 infection, Mean (0 nM = 100)” value ([2]; compound 100000 nM) was -2.857. For the same substance, the IC50 ([2]; read-out: IC50 SARS-CoV-2 Wuhan-Hu-1) was 4.57 µM, the IC50 ([2]; read-out: IC50 SARS-CoV-2 Wuhan-Hu-1 (text)) was 4.6 µM and the IC50 ([3]; Caco-2 cells, luciferase 2 days post transduction, read-out: IC50 pseudotyped lentivirus Alpha) was 390 nM. For the same substance, the “SARS-CoV-2 spike driven entry” value ([3]; compound 3.2 nM) was 80.3695, the “SARS-CoV-2 spike driven entry” value ([3]; compound 16 nM) was 86.8245 and the “SARS-CoV-2 spike driven entry” value ([3]; compound 80 nM) was 66.7955. The “SARS-CoV-2 spike driven entry” value ([3]; compound 400 nM) was 63.0945, the “SARS-CoV-2 spike driven entry” value ([3]; compound 2000 nM) was 24.7885 and the “SARS-CoV-2 spike driven entry” value ([3]; compound 10000 nM) was 4.5995. For the same substance, the “SARS-CoV-2 spike driven entry” value ([3]; compound 50000 nM) was 0.953, the “TMPRSS2 activity, Mean (0 nM = 100)” value ([4]; inhibitor 0.0167 nM, 0 min in plasma) was 108.191 and the “TMPRSS2 activity, Mean (0 nM = 100)” value ([4]; inhibitor 0.0167 nM, 30 min in plasma) was 105.387. For the same substance, the “TMPRSS2 activity, Mean (0 nM = 100)” value ([4]; inhibitor 0.0167 nM, 60 min in plasma) was 97.3483, the “TMPRSS2 activity, Mean (0 nM = 100)” value ([4]; inhibitor 0.0167 nM, 120 min in plasma) was 100.611 and the “TMPRSS2 activity, Mean (0 nM = 100)” value ([4]; inhibitor 0.0167 nM, 24 h in plasma) was 95.898. The “TMPRSS2 activity, Mean (0 nM = 100)” value ([4]; inhibitor 0.0167 nM, 10 d in plasma) was 98.4437, the “TMPRSS2 activity, Mean (0 nM = 100)” value ([4]; inhibitor 0.0167 nM, positive ctrl) was 103.005 and the “TMPRSS2 activity, Mean (0 nM = 100)” value ([4]; inhibitor 0.167 nM, 0 min in plasma) was 105.131. The “TMPRSS2 activity, Mean (0 nM = 100)” value ([4]; inhibitor 0.167 nM, 30 min in plasma) was 104.481, the “TMPRSS2 activity, Mean (0 nM = 100)” value ([4]; inhibitor 0.167 nM, 60 min in plasma) was 96.8072 and the “TMPRSS2 activity, Mean (0 nM = 100)” value ([4]; inhibitor 0.167 nM, 120 min in plasma) was 98.0518. The “TMPRSS2 activity, Mean (0 nM = 100)” value ([4]; inhibitor 0.167 nM, 24 h in plasma) was 93.482, the “TMPRSS2 activity, Mean (0 nM = 100)” value ([4]; inhibitor 0.167 nM, 10 d in plasma) was 101.036 and the “TMPRSS2 activity, Mean (0 nM = 100)” value ([4]; inhibitor 0.167 nM, positive ctrl) was 100.219. The “TMPRSS2 activity, Mean (0 nM = 100)” value ([4]; inhibitor 1.665 nM, 0 min in plasma) was 102.769, the “TMPRSS2 activity, Mean (0 nM = 100)” value ([4]; inhibitor 1.665 nM, 30 min in plasma) was 100.449 and the “TMPRSS2 activity, Mean (0 nM = 100)” value ([4]; inhibitor 1.665 nM, 60 min in plasma) was 96.1849. For the same substance, the “TMPRSS2 activity, Mean (0 nM = 100)” value ([4]; inhibitor 1.665 nM, 120 min in plasma) was 100.213, the “TMPRSS2 activity, Mean (0 nM = 100)” value ([4]; inhibitor 1.665 nM, 24 h in plasma) was 98.9115 and the “TMPRSS2 activity, Mean (0 nM = 100)” value ([4]; inhibitor 1.665 nM, 10 d in plasma) was 97.0442. For the same substance, the “TMPRSS2 activity, Mean (0 nM = 100)” value ([4]; inhibitor 1.665 nM, positive ctrl) was 88.8492, the “TMPRSS2 activity, Mean (0 nM = 100)” value ([4]; inhibitor 16.65 nM, 0 min in plasma) was 86.0968 and the “TMPRSS2 activity, Mean (0 nM = 100)” value ([4]; inhibitor 16.65 nM, 30 min in plasma) was 100.379. The “TMPRSS2 activity, Mean (0 nM = 100)” value ([4]; inhibitor 16.65 nM, 60 min in plasma) was 78.8625, the “TMPRSS2 activity, Mean (0 nM = 100)” value ([4]; inhibitor 16.65 nM, 120 min in plasma) was 82.8569 and the “TMPRSS2 activity, Mean (0 nM = 100)” value ([4]; inhibitor 16.65 nM, 24 h in plasma) was 83.5789. For the same substance, the “TMPRSS2 activity, Mean (0 nM = 100)” value ([4]; inhibitor 16.65 nM, 10 d in plasma) was 88.0057, the “TMPRSS2 activity, Mean (0 nM = 100)” value ([4]; inhibitor 16.65 nM, positive ctrl) was 53.0338 and the “TMPRSS2 activity, Mean (0 nM = 100)” value ([4]; inhibitor 166.5 nM, 0 min in plasma) was 23.84. For the same substance, the “TMPRSS2 activity, Mean (0 nM = 100)” value ([4]; inhibitor 166.5 nM, 30 min in plasma) was 25.2709 and the “TMPRSS2 activity, Mean (0 nM = 100)” value ([4]; inhibitor 166.5 nM, 60 min in plasma) was 26.798.
